Source: article PMC10374445 (Nature Chemical Biology, 2023)

Assays:
[1] = target: T1, CydDC (Escherichia coli, UniProt P23886+P29018); assay: single-particle cryo-EM structure; format: binding; details: IFasym apo state, active turnover
T1 construct: gene cydC; full-length heterodimer, C-terminal His6 on CydC, from pTTQ18 (pcydDC) in E. coli BL21 pLysS (DE3); purified in DDM (ATPase assays) or LMNG (cryo-EM)

[2] = test system: Nc1ncnc2c1ncn2[C@@H]1O[C@H](COP(=O)(O)OP(=O)(O)OP(=O)(O)O)[C@@H](O)[C@H]1O; assay: purified protein; details: 0.3 µM heme, 3 mM MgCl2, pH 7.0, 37 °C, 0.02% DDM
[3] = target: T2, CydDC (Escherichia coli, UniProt P23886+P29018, P23886:E500Q); assay: single-particle cryo-EM structure; details: Occ return apo state; both nucleotide-binding sites; turnover dataset with heme, ATP and Mg2+
T2 construct: gene cydC; full-length heterodimer, C-terminal His6 on CydC, from pTTQ18 (pcydDC) in E. coli BL21 pLysS (DE3); purified in DDM (ATPase assays) or LMNG (cryo-EM)
T2 sequence (P23886 whole entry E500Q): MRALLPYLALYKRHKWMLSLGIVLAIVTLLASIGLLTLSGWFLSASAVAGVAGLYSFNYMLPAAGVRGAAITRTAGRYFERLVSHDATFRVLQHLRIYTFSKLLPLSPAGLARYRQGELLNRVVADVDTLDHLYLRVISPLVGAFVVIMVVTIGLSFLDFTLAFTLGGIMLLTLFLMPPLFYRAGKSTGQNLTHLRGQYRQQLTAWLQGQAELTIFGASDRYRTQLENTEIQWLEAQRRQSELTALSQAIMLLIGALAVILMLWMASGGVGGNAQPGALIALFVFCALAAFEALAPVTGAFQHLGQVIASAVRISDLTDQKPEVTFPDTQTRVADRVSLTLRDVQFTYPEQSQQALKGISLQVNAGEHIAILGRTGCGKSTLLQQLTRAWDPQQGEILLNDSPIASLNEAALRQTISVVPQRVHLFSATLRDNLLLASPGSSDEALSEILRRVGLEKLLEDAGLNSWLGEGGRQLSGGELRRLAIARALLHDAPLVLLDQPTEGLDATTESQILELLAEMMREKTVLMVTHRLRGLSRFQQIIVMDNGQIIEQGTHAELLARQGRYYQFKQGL
T2 sequence (P29018 whole entry): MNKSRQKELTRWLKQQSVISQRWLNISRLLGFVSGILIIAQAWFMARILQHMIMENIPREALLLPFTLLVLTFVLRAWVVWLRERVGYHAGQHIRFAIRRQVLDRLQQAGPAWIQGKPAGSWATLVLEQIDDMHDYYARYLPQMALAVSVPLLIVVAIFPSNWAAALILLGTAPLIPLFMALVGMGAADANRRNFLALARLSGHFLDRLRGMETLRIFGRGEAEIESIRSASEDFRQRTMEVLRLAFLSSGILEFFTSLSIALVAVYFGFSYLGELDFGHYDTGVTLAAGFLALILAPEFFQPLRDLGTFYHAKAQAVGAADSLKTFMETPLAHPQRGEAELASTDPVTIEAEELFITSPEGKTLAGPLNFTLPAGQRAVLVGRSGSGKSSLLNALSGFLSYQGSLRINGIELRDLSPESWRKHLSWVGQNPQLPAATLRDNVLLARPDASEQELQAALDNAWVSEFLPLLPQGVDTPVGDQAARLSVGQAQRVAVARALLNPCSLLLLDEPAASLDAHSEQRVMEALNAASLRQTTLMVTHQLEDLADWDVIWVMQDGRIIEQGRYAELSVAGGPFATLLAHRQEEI

T1 sequence (P23886 whole entry): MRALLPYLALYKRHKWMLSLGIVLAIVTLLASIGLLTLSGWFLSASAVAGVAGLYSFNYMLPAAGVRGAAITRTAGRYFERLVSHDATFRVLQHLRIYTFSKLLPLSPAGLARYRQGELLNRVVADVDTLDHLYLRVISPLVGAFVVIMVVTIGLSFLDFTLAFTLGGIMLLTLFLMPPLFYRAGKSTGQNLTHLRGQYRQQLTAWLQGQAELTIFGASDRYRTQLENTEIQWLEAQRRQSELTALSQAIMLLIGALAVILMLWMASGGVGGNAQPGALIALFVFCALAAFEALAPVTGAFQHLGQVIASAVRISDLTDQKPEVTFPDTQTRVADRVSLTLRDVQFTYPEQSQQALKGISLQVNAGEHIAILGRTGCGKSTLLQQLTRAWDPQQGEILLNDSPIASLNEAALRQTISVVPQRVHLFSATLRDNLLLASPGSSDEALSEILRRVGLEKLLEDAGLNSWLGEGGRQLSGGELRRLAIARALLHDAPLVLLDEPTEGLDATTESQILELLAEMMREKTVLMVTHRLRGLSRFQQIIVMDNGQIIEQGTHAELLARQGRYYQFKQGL
T1 sequence (P29018 whole entry): as the sequence (P29018 whole entry) above

In the case of `Nc1ncnc2c1ncn2[C@@H]1O[C@H](COP(=O)(O)OP(=O)(O)O)[C@@H](O)[C@H]1O` [ADP], the “single-particle cryo-EM structure” value ([1]; site NBS of CydC, with Pi) is reported as “obtained from the turnover dataset of CydDC to ADP and Pi”.

CydDC (Escherichia coli K-12) showed a Km [2] of 91.9 ± 9.7 µM.

For `Nc1ncnc2c1ncn2[C@@H]1O[C@H](COP(=O)(O)OP(=O)(O)OP(=O)(O)O)[C@@H](O)[C@H]1O` [ATP], the “single-particle cryo-EM structure” value [3] was “The left panel shows a close-up view of ATP bound to NBS^D” and the “single-particle cryo-EM structure” value ([1]; degenerate site NBS of CydD) was “NBS^D conformations in the Occreturnapo (ATP), IFasymapo (ATP)”.
